In patent US7045532B2 (Millennium Pharmaceuticals, Inc., priority 1999, dated 2006):
Where two headings read alike, the source gives them in different places.

What was measured:
ACE (Sigma, A2580) = target: T1, ACE (Sigma, A2580) (Sus scrofa, UniProt F1RRW5); experiment: ACE enzymatic activity assay; format: biochemical, porcine; conditions: Ki class, compounds tested in 5% DMSO
T1 construct: ACE from porcine kidney; purchased Sigma A2580; host or cells: porcine kidney
T1 sequence (F1RRW5 34-1309): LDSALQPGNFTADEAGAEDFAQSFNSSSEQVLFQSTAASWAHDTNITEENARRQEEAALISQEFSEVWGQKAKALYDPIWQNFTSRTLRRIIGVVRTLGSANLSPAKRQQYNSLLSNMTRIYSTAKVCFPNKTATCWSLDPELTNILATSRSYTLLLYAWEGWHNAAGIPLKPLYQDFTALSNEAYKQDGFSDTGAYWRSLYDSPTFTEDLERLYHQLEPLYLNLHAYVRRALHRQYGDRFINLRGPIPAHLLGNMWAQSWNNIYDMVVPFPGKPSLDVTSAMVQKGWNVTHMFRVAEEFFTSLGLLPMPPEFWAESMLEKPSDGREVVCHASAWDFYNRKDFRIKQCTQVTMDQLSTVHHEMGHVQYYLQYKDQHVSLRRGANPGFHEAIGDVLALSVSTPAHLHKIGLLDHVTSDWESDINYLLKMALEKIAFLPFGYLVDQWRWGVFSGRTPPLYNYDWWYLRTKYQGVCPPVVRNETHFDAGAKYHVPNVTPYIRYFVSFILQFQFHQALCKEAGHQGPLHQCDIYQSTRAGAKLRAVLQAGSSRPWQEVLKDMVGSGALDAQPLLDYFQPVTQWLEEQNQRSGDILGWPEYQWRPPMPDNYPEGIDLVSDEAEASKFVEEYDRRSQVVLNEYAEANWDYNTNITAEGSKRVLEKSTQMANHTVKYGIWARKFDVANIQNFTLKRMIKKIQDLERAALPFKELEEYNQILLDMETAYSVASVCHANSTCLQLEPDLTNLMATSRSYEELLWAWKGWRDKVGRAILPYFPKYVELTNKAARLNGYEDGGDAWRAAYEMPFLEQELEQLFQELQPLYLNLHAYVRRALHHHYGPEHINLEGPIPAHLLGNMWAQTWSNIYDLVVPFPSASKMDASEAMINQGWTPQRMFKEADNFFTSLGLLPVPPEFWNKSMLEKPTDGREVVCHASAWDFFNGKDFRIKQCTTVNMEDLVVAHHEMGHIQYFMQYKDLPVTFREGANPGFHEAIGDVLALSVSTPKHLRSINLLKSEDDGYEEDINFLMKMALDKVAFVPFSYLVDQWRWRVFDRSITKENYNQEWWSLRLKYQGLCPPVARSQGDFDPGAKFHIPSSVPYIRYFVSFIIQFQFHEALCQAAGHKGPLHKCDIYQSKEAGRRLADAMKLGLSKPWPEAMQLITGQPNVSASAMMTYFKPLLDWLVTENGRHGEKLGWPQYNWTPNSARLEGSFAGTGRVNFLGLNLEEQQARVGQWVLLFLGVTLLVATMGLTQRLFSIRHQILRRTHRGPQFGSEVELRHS
Method in brief: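 Fluorogenic substrate cleavage by 1 nM ACE, read at 320/405 nm after EDTA stop at ~30 min. Reactions at 25 °C, pH 7.5, in HEPES/NaCl/Brij-35 buffer; compounds tested at 12 concentrations in 5% DMSO.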

Carboxypeptidase A = target: T2, Carboxypeptidase A (Bos taurus, UniProt P00730); experiment: Carboxypeptidase A activity assay; format: biochemical; conditions: Ki class, compounds tested in 5% DMSO
T2 sequence (P00730 111-419): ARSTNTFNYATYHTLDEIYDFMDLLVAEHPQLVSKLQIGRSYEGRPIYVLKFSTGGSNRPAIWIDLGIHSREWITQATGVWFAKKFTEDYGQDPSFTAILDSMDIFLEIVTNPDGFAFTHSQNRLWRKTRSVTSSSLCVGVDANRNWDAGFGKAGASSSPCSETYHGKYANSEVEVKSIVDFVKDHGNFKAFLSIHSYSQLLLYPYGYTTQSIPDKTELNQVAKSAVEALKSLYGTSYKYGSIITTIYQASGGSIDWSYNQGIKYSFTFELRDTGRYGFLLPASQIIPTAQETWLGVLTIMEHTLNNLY
Method in brief: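 Ki obtained by correcting apparent Ki for substrate, Ki=Kiapp/(1+[S]/Km), from 12-concentration series. Enzyme activity read by absorbance at 328 nm with 5% DMSO present, EDTA stop.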

ACE-2 [1] = target: ACE-2 (Rattus norvegicus, UniProt Q5EGZ1); experiment: ACE-2 Competitive Substrate Assay, rat ACE-2; format: biochemical; conditions: Ki class, compounds tested in 5% DMSO
ACE-2 [2] = target: T3, ACE-2 (Homo sapiens, UniProt Q9BYF1); experiment: ACE-2 Competitive Substrate Assay (ACS Assay); format: biochemical
T3 construct: a stop codon inserted after the serine immediately preceding the transmembrane domain; made in house; host or cells: CHO K1 cells (transient transfection, purified from conditioned medium)

[3] = Ki class, compounds tested in 5% DMSO, 12 concentrations, read-out: Human ACE-2 Activity

T3 sequence (Q9BYF1 18-740 limits assumed): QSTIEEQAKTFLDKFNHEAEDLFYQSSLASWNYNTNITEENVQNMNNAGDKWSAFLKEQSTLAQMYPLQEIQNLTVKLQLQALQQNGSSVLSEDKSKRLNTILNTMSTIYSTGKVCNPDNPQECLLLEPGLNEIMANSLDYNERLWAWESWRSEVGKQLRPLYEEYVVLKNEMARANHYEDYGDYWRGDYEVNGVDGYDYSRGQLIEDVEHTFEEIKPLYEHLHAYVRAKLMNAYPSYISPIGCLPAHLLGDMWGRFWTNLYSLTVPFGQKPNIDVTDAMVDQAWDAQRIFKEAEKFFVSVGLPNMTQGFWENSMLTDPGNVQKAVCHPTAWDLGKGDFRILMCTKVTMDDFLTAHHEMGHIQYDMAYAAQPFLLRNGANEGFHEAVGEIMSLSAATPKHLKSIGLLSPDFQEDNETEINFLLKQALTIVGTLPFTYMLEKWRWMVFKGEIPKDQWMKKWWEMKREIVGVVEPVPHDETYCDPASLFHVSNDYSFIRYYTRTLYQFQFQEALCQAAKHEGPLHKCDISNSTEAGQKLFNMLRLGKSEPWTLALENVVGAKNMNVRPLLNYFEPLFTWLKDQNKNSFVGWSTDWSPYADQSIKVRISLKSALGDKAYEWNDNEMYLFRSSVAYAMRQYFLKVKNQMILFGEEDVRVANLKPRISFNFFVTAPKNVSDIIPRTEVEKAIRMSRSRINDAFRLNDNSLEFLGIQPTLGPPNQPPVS
ACE-2 (Rattus norvegicus, UniProt Q5EGZ1), sequence (Q5EGZ1 18-805): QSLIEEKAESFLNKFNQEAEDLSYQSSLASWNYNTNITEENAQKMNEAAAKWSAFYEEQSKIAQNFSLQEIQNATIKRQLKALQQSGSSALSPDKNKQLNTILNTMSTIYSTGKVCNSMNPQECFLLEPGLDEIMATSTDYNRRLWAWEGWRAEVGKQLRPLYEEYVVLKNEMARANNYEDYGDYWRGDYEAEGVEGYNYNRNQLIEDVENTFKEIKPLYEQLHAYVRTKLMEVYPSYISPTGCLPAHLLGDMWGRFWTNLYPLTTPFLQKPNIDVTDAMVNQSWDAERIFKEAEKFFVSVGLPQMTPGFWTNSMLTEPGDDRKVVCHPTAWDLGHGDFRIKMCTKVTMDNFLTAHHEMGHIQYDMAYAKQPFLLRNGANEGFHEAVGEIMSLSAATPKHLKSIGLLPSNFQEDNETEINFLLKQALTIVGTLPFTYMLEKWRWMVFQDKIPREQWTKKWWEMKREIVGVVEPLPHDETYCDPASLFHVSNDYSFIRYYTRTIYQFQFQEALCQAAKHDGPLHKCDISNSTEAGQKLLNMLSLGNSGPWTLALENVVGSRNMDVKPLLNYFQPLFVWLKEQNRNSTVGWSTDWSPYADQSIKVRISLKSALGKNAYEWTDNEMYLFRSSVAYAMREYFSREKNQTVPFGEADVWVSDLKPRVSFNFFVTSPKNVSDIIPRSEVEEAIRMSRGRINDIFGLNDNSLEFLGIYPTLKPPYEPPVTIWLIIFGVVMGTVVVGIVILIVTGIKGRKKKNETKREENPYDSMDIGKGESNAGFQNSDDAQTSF

CC(C)CC(N[C@@H](Cc1cncn1Cc1ccc(C(C)C)cc1)C(=O)O)C(=O)O (single isomer, unassigned) [HU, 2-[1-Carboxy-2-[3-(4-isopropyl-benzyl)-3H-imidazol-4-yl]-ethylamino)4-methyl-pentanoic acid]
Ki (ACE (Sigma, A2580); 12 compound concentrations): < 10 µM
Ki (Carboxypeptidase A; 12 compound concentrations): < 10 µM
Ki (ACE-2 [1]; 12 compound concentrations): 0.1 to 0.5 µM
Ki (ACE-2 [2]; Ki class, compounds tested in 5% DMSO, 12 compound concentrations, Ki=Kiapp/(1+[S]/Km), read-out: Human ACE-2 Activity): < 0.1 µM
Ki (ACE-2 [2]; Table 3, very good ACE-2 inhibiting compounds, species not given, read-out: ACE-2 Activity, Ki): 0.05 to 0.1 µM

CC(C)C[C@@H](C(=O)O)N(C(=O)c1ccccc1)C(CCc1ccccc1)C(=O)O (stereo in doubt) [AV, 2-[Benzoyl-(1-carboxy-3-phenyl-propyl)-amino]-4-methyl-pentanoic acid]
Ki (ACE (Sigma, A2580); 12 concentrations): > 50 µM
Ki (Carboxypeptidase A; 12 concentrations): 10 to 50 µM
Ki (ACE-2 [1]; 12 concentrations): > 0.5 µM
Ki (ACE-2 [2]; [3]): > 0.5 µM

CCCC(N[C@H](CCc1ccccc1)C(=O)O)C(=O)O (stereo in doubt) [BA, 2-(1-Carboxy-3-phenyl-propylamino)-pentanoicacid]
Ki (ACE (Sigma, A2580); 12 concentrations): > 50 µM
Ki (Carboxypeptidase A; 12 concentrations): > 50 µM
Ki (ACE-2 [1]; 12 concentrations): > 0.5 µM
Ki (ACE-2 [2]; [3]): > 0.5 µM

CCC(C)C(N[C@H](Cc1c[nH]cn1)C(=O)O)C(=O)O (stereo in doubt) [BE, 2-[1-Carboxy-2-(1H-imidazol-4-yl)-ethylamino]-3-methyl-pentanoic acid]
Ki (ACE (Sigma, A2580); 12 concentrations): 10 to 50 µM
Ki (Carboxypeptidase A; 12 concentrations): > 50 µM
Ki (ACE-2 [1]; 12 concentrations): > 0.5 µM
Ki (ACE-2 [2]; [3]): > 0.5 µM

CC(C)CC(N[C@H](Cc1ccccn1)C(=O)O)C(=O)O (stereo in doubt) [BZ, 2-(1-Carboxy-2-pyridin-2-yl-ethylamino)-4-methyl-pentanoic acid]
Ki (ACE (Sigma, A2580); 12 concentrations): > 50 µM
Ki (Carboxypeptidase A; 12 concentrations): > 50 µM
Ki (ACE-2 [1]; 12 concentrations): > 0.5 µM
Ki (ACE-2 [2]; [3]): > 0.5 µM

CC(C)CC(N[C@H](Cc1cccs1)C(=O)O)C(=O)O (stereo in doubt) [CP, 2-(1-Carboxy-2-thiophen-2-yl-ethylamino)-4-methyl-pentanoic acid]
Ki (ACE (Sigma, A2580); 12 concentrations): > 50 µM
Ki (Carboxypeptidase A; 12 concentrations): 10 to 50 µM
Ki (ACE-2 [1]; 12 concentrations): > 0.5 µM
Ki (ACE-2 [2]; [3]): > 0.5 µM

CC(C)CC(N[C@H](Cc1cn(Cc2ccccc2)cn1)C(=O)O)C(=O)O (stereo in doubt) [CW, 2-[2-(1-Benzyl-1H-imidazol-4-yl)-1-carboxy-ethylamino]-4-methyl-pentanoic acid]
Ki (ACE (Sigma, A2580); 12 concentrations): > 50 µM
Ki (Carboxypeptidase A; 12 concentrations): > 50 µM
Ki (ACE-2 [1]; 12 concentrations): > 0.5 µM
Ki (ACE-2 [2]; [3]): > 0.5 µM

CC(C)CC(N[C@@H](Cc1cn(-c2ccc([N+](=O)[O-])cc2[N+](=O)[O-])cn1)C(=O)O)C(=O)O (stereo in doubt) [EG, 2-[1-Carboxy-2-[1-(2,4-dinitro-phenyl)-1H-imidazol-4-yl]-ethylamino)4-methyl-pentanoic acid]
Ki (ACE (Sigma, A2580); 12 concentrations): 10 to 50 µM
Ki (Carboxypeptidase A; 12 concentrations): > 50 µM
Ki (ACE-2 [1]; 12 concentrations): > 0.5 µM
Ki (ACE-2 [2]; [3]): > 0.5 µM

CC(C)CC(N[C@H](CN(C)Cc1ccccc1)C(=O)O)C(=O)O (stereo in doubt) [FU, 2-[2-(Benzyl-methyl-amino)-1-carboxy-ethylamino]-4-methyl-pentanoic acid]
Ki (ACE (Sigma, A2580); 12 concentrations): > 50 µM
Ki (Carboxypeptidase A; 12 concentrations): > 50 µM
Ki (ACE-2 [1]; 12 concentrations): > 0.5 µM
Ki (ACE-2 [2]; [3]): > 0.5 µM

CC(C)C[C@H](NC(CN(C)c1ccccc1)C(=O)O)C(=O)O (stereo partly shown) [AP, 2-[1-Carboxy-2-(methyl-phenyl-amino)-ethylamino]-4-methyl-pentanoic acid]
Ki (ACE (Sigma, A2580); 12 concentrations): > 50 µM
Ki (Carboxypeptidase A; 12 concentrations): 10 to 50 µM
Ki (ACE-2 [1]; 12 concentrations): 0.1 to 0.5 µM
Ki (ACE-2 [2]; [3]): > 0.5 µM

CC(C)[C@H](NC(CCc1ccccc1)C(=O)O)C(=O)O (stereo partly shown) [AS, 2-(1-Carboxy-3-phenyl-propylamino)-3-methyl-butync acid]
Ki (ACE (Sigma, A2580); 12 concentrations): > 50 µM
Ki (Carboxypeptidase A; 12 concentrations): > 50 µM
Ki (ACE-2 [1]; 12 concentrations): > 0.5 µM
Ki (ACE-2 [2]; [3]): > 0.5 µM

O=C(O)C[C@H](NC(CCc1ccccc1)C(=O)O)C(=O)O (stereo partly shown) [AZ, 2-(1-Carboxy-3-phenyl-propylamino)-succinicacid]
Ki (ACE (Sigma, A2580); 12 concentrations): > 50 µM
Ki (Carboxypeptidase A; 12 concentrations): > 50 µM
Ki (ACE-2 [1]; 12 concentrations): > 0.5 µM
Ki (ACE-2 [2]; [3]): > 0.5 µM
